Source: patent publication US20260070945A1, “MACROCYCLIC IMMUNOMODULATORS” (Bristol-Myers Squibb Company, priority 2022, published 2026)
pIC50: −log10 of the molar value. Where a SMILES comes first, the peptide text is derived from it. Bridges are numbered along the chain shown (N, C = ends). [ ]: non-standard residue; d: D form. The star is where a group is joined. ξ: configuration not given here. Phe(3-CF3) = N[C@@H](Cc1cccc(C(F)(F)F)c1)C(=O)O; Phe(4-COOH) = N[C@@H](Cc1ccc(C(=O)O)cc1)C(=O)O; Bip = N[C@@H](Cc1ccc(-c2ccccc2)cc1)C(=O)O; NH(CH2)14COOH = O=C(O)CCCCCCCCCCCCCCN*; Phe(3-Me) = Cc1cccc(C[C@H](N)C(=O)O)c1; NH(CH2)12COOH = O=C(O)CCCCCCCCCCCCN*; Val(3-OH) = CC(C)(O)[C@H](N)C(=O)O; Cha = N[C@@H](CC1CCCCC1)C(=O)O; Thr(3ξ) = CC(O)[C@H](N)C(=O)O; dDab = NCC[C@@H](N)C(=O)O; Carboxymethyl = O=C(O)C*; NMeA = CN[C@@H](C)C(=O)O; Aun = NCCCCCCCCCCC(=O)O; Dab = NCC[C@H](N)C(=O)O; AEEA = NCCOCCOCC(=O)O

The compounds below were run against T1, PD-1/PD-L1 interaction (PE-labeled human PD-L1-Ig binding to Jurkat cell line over-expressing human PD-1) (Homo sapiens, UniProt Q15116) (assay: Jurkat-PD-1 Cell Binding High-Content Screening Assay (CBA)). Settings: PE-labeled PD-L1-Ig 20 nM final, Jurkat-hPD-1 cells; read-out: Jurkat HPD1 PDL1 IC50.
T1 construct: expressed in transfected cells; host or cells: Jurkat
How it was run: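 Binding of 20 nM (final) PE-tagged PD-L1-Ig to compound-pretreated Jurkat-hPD-1 cells was measured by high-content imaging after 1 h. Pretreatment ran 2 h at 37 °C in DMEM with 10% fetal calf serum.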

T1 sequence (Q15116 25-288): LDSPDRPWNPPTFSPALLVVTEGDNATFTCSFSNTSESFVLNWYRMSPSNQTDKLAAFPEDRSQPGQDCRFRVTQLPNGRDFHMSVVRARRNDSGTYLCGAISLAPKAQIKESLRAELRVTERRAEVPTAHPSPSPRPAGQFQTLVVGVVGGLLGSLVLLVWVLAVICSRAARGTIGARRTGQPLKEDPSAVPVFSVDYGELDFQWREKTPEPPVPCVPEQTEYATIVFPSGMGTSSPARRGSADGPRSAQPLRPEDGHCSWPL

| SMILES | pIC50 |
| --- | --- |
| CC(=O)NCCCC[C@@H]1NC(=O)[C@H](C(C)C)NC(=O)[C@H](CC2CCCCC2)NC(=O)[C@H](CCN)NC(=O)[C@@H](CC(C)C)NC(=O)[C@H](C)N(C)C(=O)[C@H](CCC(N)=O)NC(=O)[C@H](Cc2ccc(-c3ccccc3)cc2)NC(=O)[C@H](Cc2ccc(C(=O)O)cc2)NC(=O)[C@H](Cc2cccc(C(F)(F)F)c2)NC(=O)[C@H](CC(=O)O)NC(=O)[C@H](Cc2ccc(OCC(=O)O)cc2)NC(=O)[C@H](Cc2ccc(OCC(=O)O)cc2)NC(=O)CSC[C@@H](C(=O)N[C@@H](CCN)C(=O)NCCOCCOCC(=O)NCCCCCCCCCCC(=O)O)NC1=O [Example 2598] ({CH2CO}-Y(Carboxymethyl)Y(Carboxymethyl)D[Phe(3-CF3)][Phe(4-COOH)][Bip]Q[NMeA][dL][Dab][Cha]VK(Ac)C[Dab][AEEA][Aun]-OH; thioether N-14) | 8.55 |
| CC(=O)NCCCC[C@@H]1NC(=O)[C@H](C(C)(C)O)NC(=O)[C@H](CC2CCCCC2)NC(=O)[C@H](CCN)NC(=O)[C@@H](CC(C)C)NC(=O)[C@H](C)N(C)C(=O)[C@H](CCC(N)=O)NC(=O)[C@H](Cc2ccc(-c3ccccc3)cc2)NC(=O)[C@H](Cc2ccc(C(=O)O)cc2)NC(=O)[C@H](Cc2cccc(C(F)(F)F)c2)NC(=O)[C@H](CC(=O)O)NC(=O)[C@H](Cc2ccc(OCC(=O)O)cc2)NC(=O)[C@H](Cc2ccc(OCC(=O)O)cc2)NC(=O)CSC[C@@H](C(=O)N[C@H](CCN)C(=O)NCCCCCCCCCCCCC(=O)O)NC1=O [Example 2599] ({CH2CO}-Y(Carboxymethyl)Y(Carboxymethyl)D[Phe(3-CF3)][Phe(4-COOH)][Bip]Q[NMeA][dL][Dab][Cha][Val(3-OH)]K(Ac)C[dDab]-{NH(CH2)12COOH}; thioether N-14) | 7.55 |
| CC(=O)NCCCC[C@@H]1NC(=O)[C@H](C(C)(C)O)NC(=O)[C@H](CC2CCCCC2)NC(=O)[C@H](CCN)NC(=O)[C@@H](CC(C)C)NC(=O)[C@H](C)N(C)C(=O)[C@H](CCCNC(=N)N)NC(=O)[C@H](Cc2ccc(-c3ccccc3)cc2)NC(=O)[C@H](Cc2ccc(C(=O)O)cc2)NC(=O)[C@H](Cc2cccc(C(F)(F)F)c2)NC(=O)[C@H](CC(=O)O)NC(=O)[C@H](Cc2ccc(OCC(=O)O)cc2)NC(=O)[C@H](Cc2ccc(OCC(=O)O)cc2)NC(=O)CSC[C@@H](C(=O)N[C@@H](CCN)C(=O)NCCCCCCCCCCCCC(=O)O)NC1=O [Example 2600] ({CH2CO}-Y(Carboxymethyl)Y(Carboxymethyl)D[Phe(3-CF3)][Phe(4-COOH)][Bip]R[NMeA][dL][Dab][Cha][Val(3-OH)]K(Ac)C[Dab]-{NH(CH2)12COOH}; thioether N-14) | 8.26 |
| CC(C)C[C@H]1NC(=O)[C@H](C)N(C)C(=O)[C@H](Cc2ccc(OCC(=O)O)cc2)NC(=O)[C@H](Cc2ccc(-c3ccccc3)cc2)NC(=O)[C@H](Cc2ccc(C(=O)O)cc2)NC(=O)[C@H](Cc2cccc(C(F)(F)F)c2)NC(=O)[C@H](CC(=O)O)NC(=O)[C@H](Cc2ccc(OCC(=O)O)cc2)NC(=O)[C@H](C(C)O)NC(=O)CSC[C@@H](C(=O)N[C@@H](CCN)C(=O)NCCCCCCCCCCCCCCC(=O)O)NC(=O)[C@H](CCC(=O)O)NC(=O)[C@H](C(C)C)NC(=O)[C@H](CC2CCCCC2)NC(=O)[C@H](CCN)NC1=O (stereo partly drawn) [Example 2602] ({CH2CO}-[Thr(3ξ)]Y(Carboxymethyl)D[Phe(3-CF3)][Phe(4-COOH)][Bip]Y(Carboxymethyl)[NMeA][dL][Dab][Cha]VEC[Dab]-{NH(CH2)14COOH}; thioether N-14) | 6.72 |
| Cc1cccc(C[C@@H]2NC(=O)[C@H](CC(=O)O)NC(=O)[C@H](Cc3ccc(OCC(=O)O)cc3)NC(=O)[C@H](C(C)O)NC(=O)CSC[C@@H](C(=O)N[C@@H](CCN)C(=O)NCCOCCOCC(=O)NCCCCCCCCCCCCCCC(=O)O)NC(=O)[C@H](CCC(=O)O)NC(=O)[C@H](C(C)C)NC(=O)[C@H](CC3CCCCC3)NC(=O)[C@H](CCN)NC(=O)[C@@H](CC(C)C)NC(=O)[C@H](C)N(C)C(=O)[C@H](Cc3ccc(OCC(=O)O)cc3)NC(=O)[C@H](Cc3ccc(-c4ccccc4)cc3)NC(=O)[C@H](Cc3ccc(C(=O)O)cc3)NC2=O)c1 (stereo partly drawn) [Example 2603] ({CH2CO}-[Thr(3ξ)]Y(Carboxymethyl)D[Phe(3-Me)][Phe(4-COOH)][Bip]Y(Carboxymethyl)[NMeA][dL][Dab][Cha]VEC[Dab][AEEA]-{NH(CH2)14COOH}; thioether N-14) | 6.39 |
| CC(C)C[C@H]1NC(=O)[C@H](C)N(C)C(=O)[C@H](Cc2ccc(C(=O)O)cc2)NC(=O)[C@H](Cc2ccc(-c3ccccc3)cc2)NC(=O)[C@H](Cc2ccc(C(=O)O)cc2)NC(=O)[C@H](Cc2cccc(C(F)(F)F)c2)NC(=O)[C@H](CC(=O)O)NC(=O)[C@H](Cc2ccc(C(=O)O)cc2)NC(=O)[C@H](C(C)O)NC(=O)CSC[C@@H](C(=O)N[C@H](CCN)C(=O)NCCOCCOCC(=O)NCCCCCCCCCCCCC(=O)O)NC(=O)[C@H](CC(=O)O)NC(=O)[C@H](C(C)C)NC(=O)[C@H](CC2CCCCC2)NC(=O)[C@H](CCN)NC1=O (stereo partly drawn) [Example 2604] ({CH2CO}-[Thr(3ξ)][Phe(4-COOH)]D[Phe(3-CF3)][Phe(4-COOH)][Bip][Phe(4-COOH)][NMeA][dL][Dab][Cha]VDC[dDab][AEEA]-{NH(CH2)12COOH}; thioether N-14) | 6.37 |
| CC(C)C[C@H]1NC(=O)[C@H](C)N(C)C(=O)[C@H](Cc2ccc(C(=O)O)cc2)NC(=O)[C@H](Cc2ccc(-c3ccccc3)cc2)NC(=O)[C@H](Cc2ccc(C(=O)O)cc2)NC(=O)[C@H](Cc2cccc(C(F)(F)F)c2)NC(=O)[C@H](CC(=O)O)NC(=O)[C@H](Cc2ccc(C(=O)O)cc2)NC(=O)[C@H](C(C)O)NC(=O)CSC[C@@H](C(=O)N[C@@H](CCN)C(=O)NCCOCCOCC(=O)NCCCCCCCCCCCCCCC(=O)O)NC(=O)[C@H](CC(=O)O)NC(=O)[C@H](C(C)C)NC(=O)[C@H](CC2CCCCC2)NC(=O)[C@H](CCN)NC1=O (stereo partly drawn) [Example 2605] ({CH2CO}-[Thr(3ξ)][Phe(4-COOH)]D[Phe(3-CF3)][Phe(4-COOH)][Bip][Phe(4-COOH)][NMeA][dL][Dab][Cha]VDC[Dab][AEEA]-{NH(CH2)14COOH}; thioether N-14) | 6.21 |
| CC(=O)NCCCC[C@@H]1NC(=O)[C@H](C(C)(C)O)NC(=O)[C@H](CC2CCCCC2)NC(=O)[C@H](CCN)NC(=O)[C@@H](CC(C)C)NC(=O)[C@H](C)N(C)C(=O)[C@H](CCC(N)=O)NC(=O)[C@H](Cc2ccc(-c3ccccc3)cc2)NC(=O)[C@H](Cc2ccc(C(=O)O)cc2)NC(=O)[C@H](Cc2cccc(C(F)(F)F)c2)NC(=O)[C@H](CC(=O)O)NC(=O)[C@H](Cc2ccc(OCC(=O)O)cc2)NC(=O)[C@H](Cc2ccc(OCC(=O)O)cc2)NC(=O)CSC[C@@H](C(=O)N[C@@H](CCN)C(=O)NCCCCCCCCCCCCCCC(=O)O)NC1=O [Example 2606] ({CH2CO}-Y(Carboxymethyl)Y(Carboxymethyl)D[Phe(3-CF3)][Phe(4-COOH)][Bip]Q[NMeA][dL][Dab][Cha][Val(3-OH)]K(Ac)C[Dab]-{NH(CH2)14COOH}; thioether N-14) | 7.31 |
